The numbers were not newly measured in paper PMC9097188, “Design, Synthesis, and Molecular Modeling Studies of a Novel Benzimidazole as an Aromatase Inhibitor” (ACS Omega, 2022), which cites them from elsewhere.

This data set concerns the target aromatase. As to conditions: 3D-QSAR data set, IC50 converted to pIC50; SI reference list; cited from earlier work.
For `CCn1cc([C@H](c2ccccc2Cl)n2ccnc2)c2cc(Br)ccc21` [121R], the “Experimental pIC50” value is 6.009.
As for `N#Cc1ccc([C@H](c2ccc3[nH]ccc3c2)n2ccnc2)cc1` [5R], the “Experimental pIC50” value is 7.714.
Take `O=S(=O)(NCCc1c(C(c2ccc(F)cc2)c2[nH]c3ccccc3c2CCNS(=O)(=O)c2ccc(C(F)(F)F)cc2)[nH]c2ccccc12)c1ccc(C(F)(F)F)cc1` [compound 42]: the “Experimental pIC50” value is listed as 5.357.
On to `N#Cc1ccc(-n2cc(Cn3ccnc3)c3ccccc32)cc1` [compound 116], for which the “Experimental pIC50” value was 5.851.
Consider `COc1ccc(-n2c(Cn3ccnc3)cc3ccccc32)cc1` [compound 12], for which the “Experimental pIC50” value is given as 7.111.
Turning to `Clc1cccc([C@H](c2ccc3[nH]ccc3c2)n2ccnc2)c1` [3S], the “Experimental pIC50” value is given as 6.527.
`CCn1cc([C@@H](c2ccc(F)cc2)n2ccnc2)c2cc(C#N)ccc21` [76R]: the “Experimental pIC50” value is 6.495.
Turning to `N#Cc1ccc(C2=Nn3c(nnc3-c3ccc(-c4nc5ccc(Cl)cc5[nH]4)cc3)SC2)cc1` [compound 103], the “Experimental pIC50” value was 5.806.
For `O[C@@](c1cccnc1)(c1cc2ccccc2o1)c1ccc(Cl)cc1Cl` [87R], the “Experimental pIC50” value is on record as 5.658.
As to `N#Cc1ccc(C(c2[nH]c3ccccc3c2CCNS(=O)(=O)c2ccc(Cl)cc2)c2[nH]c3ccccc3c2CCNS(=O)(=O)c2ccc(Cl)cc2)cc1` [compound 35], the “Experimental pIC50” value is listed as 5.260.
As to `Cc1ccc(S(=O)(=O)Nc2ccc3[nH]ccc3c2)cc1` [compound 63], the “Experimental pIC50” value was 6.796.
On to `Cc1ccc(S(=O)(=O)NCCc2c(C(c3ccccc3)c3[nH]c4ccccc4c3CCNS(=O)(=O)c3ccc(C)cc3)[nH]c3ccccc23)cc1` [compound 29], for which the “Experimental pIC50” value is recorded as 4.924.
As to `COc1ccc(S(=O)(=O)NCCc2c(C(c3cc(OC)c(O)c(OC)c3)c3[nH]c4ccccc4c3CCNS(=O)(=O)c3ccc(OC)cc3)[nH]c3ccccc23)cc1` [compound 56], the “Experimental pIC50” value is reported as 5.602.
Take `O=S(=O)(NCCc1c(C(c2ccc(C(F)(F)F)cc2)c2[nH]c3ccccc3c2CCNS(=O)(=O)c2ccc(Cl)cc2)[nH]c2ccccc12)c1ccc(Cl)cc1` [compound 44]: the “Experimental pIC50” value is given as 5.495.
`Cc1[nH]c2ccccc2c1C=NNc1cccc(F)c1` [compound 104]: the “Experimental pIC50” value is 4.939.
For the compound `Cc1[nH]c2ccccc2c1C=NNc1cccc(Cl)c1` [compound 106], the “Experimental pIC50” value is listed as 4.718.
Regarding `Clc1ccccc1-n1cc(Cn2cncn2)c2ccccc21` [compound 113], the “Experimental pIC50” value was 5.456.
Regarding `O=S(=O)(NCCc1c(C(c2ccc(C(F)(F)F)cc2)c2[nH]c3ccccc3c2CCNS(=O)(=O)c2ccc(Br)cc2)[nH]c2ccccc12)c1ccc(Br)cc1` [compound 43], the “Experimental pIC50” value is 5.420.
As for `CCn1cc([C@@H](c2ccc(F)cc2)n2cncn2)c2cc(Br)ccc21` [123R], the “Experimental pIC50” value was 5.149.
As for `O=[N+]([O-])c1ccc(C(c2[nH]c3ccccc3c2CCNS(=O)(=O)c2ccc(Br)cc2)c2[nH]c3ccccc3c2CCNS(=O)(=O)c2ccc(Br)cc2)cc1` [compound 32], the “Experimental pIC50” value is reported as 5.569.
On to `CC(C)n1cc([C@H](c2ccc(F)cc2)n2ccnc2)c2cc(Br)ccc21` [78S], for which the “Experimental pIC50” value is reported as 6.495.
In the case of `O[C@@](c1ccc(Br)cc1)(c1cccnc1)c1cc2ccccc2o1` [85S], the “Experimental pIC50” value was 4.600.
Take `O=C1Nc2ccccc2C1(c1[nH]c2ccccc2c1CCNS(=O)(=O)c1ccccc1[N+](=O)[O-])c1[nH]c2ccccc2c1CCNS(=O)(=O)c1ccccc1[N+](=O)[O-]` [compound 62]: the “Experimental pIC50” value is recorded as 5.009.
Turning to `COc1ccc(S(=O)(=O)NCCc2c(C(c3ccc(O)cc3)c3[nH]c4ccccc4c3CCNS(=O)(=O)c3ccc(OC)cc3)[nH]c3ccccc23)cc1` [compound 46], the “Experimental pIC50” value was 6.155.
For the compound `CCn1cc([C@H](c2ccc(Cl)cc2Cl)n2cncn2)c2cc(Br)ccc21` [120R], the “Experimental pIC50” value is 6.206.
As to `COc1ccc(-n2c(Cn3ccnc3)cc3ccc(C)cc32)cc1` [compound 17], the “Experimental pIC50” value is reported as 6.858.
Turning to `O=[N+]([O-])c1cccc(S(=O)(=O)NCCc2c(C(c3ccccc3O)c3[nH]c4ccccc4c3CCNS(=O)(=O)c3cccc([N+](=O)[O-])c3)[nH]c3ccccc23)c1` [compound 54], the “Experimental pIC50” value was 5.770.
As to `O=S(=O)(NCCc1c[nH]c2ccccc12)c1ccccc1` [compound 65], the “Experimental pIC50” value is on record as 6.699.
On to `COc1ccc(S(=O)(=O)NCCc2c(C3(c4[nH]c5ccccc5c4CCNS(=O)(=O)c4ccc(OC)cc4)C(=O)Nc4ccccc43)[nH]c3ccccc23)cc1` [compound 59], for which the “Experimental pIC50” value is listed as 5.553.
As for `Cc1[nH]c2ccccc2c1C=NNc1cc(F)cc(F)c1` [compound 105], the “Experimental pIC50” value is listed as 4.886.
`CCn1c([C@H](c2ccc(F)cc2)n2ccnc2)c(C)c2ccccc21` [73S]: the “Experimental pIC50” value is 6.921.
As to `O[C@](c1ccc(Br)cc1)(c1cccnc1)c1cc2ccccc2o1` [85R], the “Experimental pIC50” value was 4.600.
Turning to `CCn1cc(C(c2ccc(F)cc2)n2cncn2)c2cc(Br)ccc21` (centres unmarked) [123S], the “Experimental pIC50” value is listed as 5.149.
`O=S(=O)(NCCc1c(C(c2ccc(C(F)(F)F)cc2)c2[nH]c3ccccc3c2CCNS(=O)(=O)c2ccc(C(F)(F)F)cc2)[nH]c2ccccc12)c1ccc(C(F)(F)F)cc1` [compound 45]: the “Experimental pIC50” value is listed as 5.638.
As to `Cc1ccc2cc(Cn3ccnc3)n(-c3ccccc3)c2c1` [compound 15], the “Experimental pIC50” value is listed as 7.670.
As for `COc1ccc2cc(Cn3ccnc3)n(-c3ccc(F)cc3)c2c1` [compound 21], the “Experimental pIC50” value is reported as 7.310.
Regarding `Cc1ccc2nc(-c3ccc(-c4nnc5n4N=C(c4ccc(F)cc4F)CS5)cc3)[nH]c2c1` [compound 82], the “Experimental pIC50” value was 7.432.
For `OCc1cn(-c2ccccc2F)c2ccccc12` [compound 109], the “Experimental pIC50” value was 6.907.
For the compound `COc1ccc(S(=O)(=O)NCCc2c(C(c3ccccc3O)c3[nH]c4ccccc4c3CCNS(=O)(=O)c3ccc(OC)cc3)[nH]c3ccccc23)cc1` [compound 52], the “Experimental pIC50” value is given as 6.097.
On to `CCn1c2ccccc2c2cc(C(c3[nH]c4ccccc4c3CCNS(=O)(=O)c3ccccc3)c3[nH]c4ccccc4c3CCNS(=O)(=O)c3ccccc3)ccc21` [compound 58], for which the “Experimental pIC50” value is on record as 5.409.
As for `COc1ccc(S(=O)(=O)NCCc2c(C(c3ccccc3)c3[nH]c4ccccc4c3CCNS(=O)(=O)c3ccc(OC)cc3)[nH]c3ccccc23)cc1` [compound 31], the “Experimental pIC50” value is 5.456.
For `O[C@](c1cccnc1)(c1cc2ccccc2o1)c1ccc(Cl)cc1Cl` [87S], the “Experimental pIC50” value is given as 5.658.
For `Fc1ccc(C2=Nn3c(nnc3-c3ccc(-c4nc5ccccc5[nH]4)cc3)SC2)cc1` [compound 101], the “Experimental pIC50” value was 5.765.
Take `O=S(=O)(Cc1ccccc1)NCCc1c[nH]c2ccccc12` [compound 64]: the “Experimental pIC50” value is 6.125.
In the case of `O=C1Nc2ccccc2C1(c1[nH]c2ccccc2c1CCNS(=O)(=O)c1cccc([N+](=O)[O-])c1)c1[nH]c2ccccc2c1CCNS(=O)(=O)c1cccc([N+](=O)[O-])c1` [compound 61], the “Experimental pIC50” value is recorded as 4.924.
For the compound `CCn1cc([C@H](c2ccc(F)cc2)n2ccnc2)c2cc(C#N)ccc21` [76S], the “Experimental pIC50” value was 6.495.
`O=S(=O)(NCCc1c(C(c2ccc3c(c2)Cc2ccccc2-3)c2[nH]c3ccccc3c2CCNS(=O)(=O)c2ccc(Cl)cc2)[nH]c2ccccc12)c1ccc(Cl)cc1` [compound 57]: the “Experimental pIC50” value is reported as 5.056.
Consider `O=S(=O)(NCCc1c(C(c2ccc(F)cc2)c2[nH]c3ccccc3c2CCNS(=O)(=O)c2ccc(Cl)cc2)[nH]c2ccccc12)c1ccc(Cl)cc1` [compound 41], for which the “Experimental pIC50” value is recorded as 5.268.
`O=[N+]([O-])c1ccc(C(c2[nH]c3ccccc3c2CCNS(=O)(=O)c2ccc(C(F)(F)F)cc2)c2[nH]c3ccccc3c2CCNS(=O)(=O)c2ccc(C(F)(F)F)cc2)cc1` [compound 34]: the “Experimental pIC50” value is 5.398.
Take `O=S(=O)(NCCc1c(C(c2ccc(O)cc2)c2[nH]c3ccccc3c2CCNS(=O)(=O)c2ccc(C(F)(F)F)cc2)[nH]c2ccccc12)c1ccc(C(F)(F)F)cc1` [compound 48]: the “Experimental pIC50” value is given as 5.886.
On to `O=S(=O)(NCCc1c(C(c2ccc(O)cc2)c2[nH]c3ccccc3c2CCNS(=O)(=O)c2ccc(Cl)cc2)[nH]c2ccccc12)c1ccc(Cl)cc1` [compound 47], for which the “Experimental pIC50” value is on record as 5.854.
On to `Fc1ccc(C2=Nn3c(nnc3-c3ccc(-c4nc5ccc(Cl)cc5[nH]4)cc3)SC2)cc1` [compound 102], for which the “Experimental pIC50” value is 5.643.
In the case of `CCn1c([C@@H](c2ccc(F)cc2)n2ccnc2)c(C)c2ccccc21` [73R], the “Experimental pIC50” value is recorded as 6.921.
As for `Cc1ccc2cc(Cn3ccnc3)n(-c3ccc(C#N)cc3)c2c1` [compound 19], the “Experimental pIC50” value was 7.568.
Turning to `O=S(=O)(NCCc1c(C(c2ccc(F)cc2)c2[nH]c3ccccc3c2CCNS(=O)(=O)c2ccc(Br)cc2)[nH]c2ccccc12)c1ccc(Br)cc1` [compound 40], the “Experimental pIC50” value is given as 5.119.
Turning to `O=[N+]([O-])c1ccc(S(=O)(=O)NCCc2c(C(c3ccccc3O)c3[nH]c4ccccc4c3CCNS(=O)(=O)c3ccc([N+](=O)[O-])cc3)[nH]c3ccccc23)cc1` [compound 51], the “Experimental pIC50” value was 5.553.
Turning to `O=[N+]([O-])c1ccccc1S(=O)(=O)NCCc1c(C(c2ccccc2O)c2[nH]c3ccccc3c2CCNS(=O)(=O)c2ccccc2[N+](=O)[O-])[nH]c2ccccc12` [compound 55], the “Experimental pIC50” value is on record as 5.337.
For `CCn1cc([C@H](c2ccc(F)cc2)n2cncn2)c2cc(Br)ccc21` [119S], the “Experimental pIC50” value is listed as 6.016.
In the case of `CC(C)n1cc([C@@H](c2ccc(F)cc2)n2ccnc2)c2cc(Br)ccc21` [78R], the “Experimental pIC50” value is given as 6.495.
Take `COc1ccc(-n2c(Cn3ccnc3)cc3ccc(Cl)cc32)cc1` [compound 26]: the “Experimental pIC50” value is recorded as 6.692.
`OCc1cn(-c2cccc(F)c2)c2ccccc12` [compound 110]: the “Experimental pIC50” value is recorded as 7.086.
Turning to `Cc1[nH]c2ccccc2c1C=NNc1ccc(Cl)cc1` [compound 107], the “Experimental pIC50” value is reported as 5.062.
